From patent publication US12384775B2, “Pyrimid-2-yl-pyrazole compounds as IRAK inhibitors” (Rigel Pharmaceuticals, Inc., priority 2022, dated 2025)

How the values were obtained:
[1] = Plasma protein binding, equilibrium dialysis (RED), rat; format: in vitro ADME; conditions: for recovery at 5 μM / fraction unbound at 5 μM: Rat plasma, drug 5 μM; for fraction unbound at 5 μM: read-out: % bound (converted); for Free Fraction in Whole Blood Assay, Rat: plasma free fraction
Method: (§1) Brain and plasma drug binding were performed by equilibrium dialysis using the Rapid Equilibrium Dialysis (RED) device. Briefly, 300 μL of plasma or brain homogenate (1 brain/3 buffer) containing drug (5 μM) was equilibrated (4-18 h) against 500 μL of buffered saline. After incubation, the concentration of drug in plasma/brain homogenate and buffer was determined by LC-MS/MS.
(§2) Recovery is calculated by determining the total amount of drug in 50 μL of plasma and 50 μL buffer after the incubation and comparing that value to the amount of drug in 50 μL of a plasma sample that was not incubated. For the protein binding assay, drug was added to the plasma and this plasma was added to one side of the dialysis device while buffer was added to the other. After filing the plasma chamber of the equilibrium device, a 50 μL aliquot of plasma was mixed with 50 μL of buffer and then quenched with stop reagent. Drug recovery=(Drug buffer+Drug plasma)/(drug in initial plasma)

[2] = molecular target: T1, IRAK4 (Homo sapiens, UniProt Q9NWZ3); test: IRAK4 Z'-LYTE assay; format: biochemical; conditions: for IC50: n = 1
T1 construct: purchased Signalchem I12-10G-20
T1 sequence (Q9NWZ3 1-460): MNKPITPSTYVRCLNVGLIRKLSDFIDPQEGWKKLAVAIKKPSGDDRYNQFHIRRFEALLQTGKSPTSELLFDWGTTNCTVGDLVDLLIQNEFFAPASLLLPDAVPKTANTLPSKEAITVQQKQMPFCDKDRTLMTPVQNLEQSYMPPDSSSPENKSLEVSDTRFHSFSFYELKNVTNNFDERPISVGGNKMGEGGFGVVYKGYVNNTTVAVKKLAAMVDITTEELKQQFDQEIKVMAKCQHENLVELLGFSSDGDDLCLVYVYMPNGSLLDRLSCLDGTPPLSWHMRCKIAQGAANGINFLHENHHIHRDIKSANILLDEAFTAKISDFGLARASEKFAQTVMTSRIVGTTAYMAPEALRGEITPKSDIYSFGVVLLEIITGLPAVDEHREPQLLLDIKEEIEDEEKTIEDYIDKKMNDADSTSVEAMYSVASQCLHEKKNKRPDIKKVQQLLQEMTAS
Method: • Bar-coded Corning, low volume NBS, black 384-well plate (Corning Cat. #4514) • Test Compounds: The Test Compounds are screened in 1% DMSO (final) in the well. For 10 point titrations, 3-fold serial dilutions are conducted from 10 µM. • Peptide/Kinase Mixture: The 2×IRAK4/Ser/Thr 07 mixture is prepared in 50 mM HEPES pH 7.5, 0.01% BRIJ-35, 10 mM MnCl2, 1 mM EGTA, 2 mM DTT, 0.02% NaN3. • ATP Solution: All ATP Solutions are diluted to a 4× working concentration in Kinase Buffer (50 mM HEPES pH 7.5, 0.01% BRIJ-35, 10 mM MgCl2, 1 mM EGTA). ATP Km apparent is previously determined using a Z-LYTE® assay. • Development Reagent Solution: The Development Reagent is diluted 1:45000 in Development Buffer. General Method • 1. 100 nL—100× Test Compound in 100% DMSO • 2. […]—Kinase buffer • 3. 5 μL—2× Peptide/Kinase Mixture • 4. 2.5 μL—4×ATP Solution
The final 10 μL Kinase Reaction consists of 3.45-63.6 ng IRAK4 and 2 μM Ser/Thr 07 in 50 mM HEPES pH 7.5, 0.01% BRIJ-35, 5 mM MgCl2, 5 mM MnCl2, 1 mM EGTA, 1 mM DTT, 0.01% NaN3. • 5. 30-second plate shake • 6. 60-minute Kinase Reaction incubation at room temperature • 7. 5 μL—Development Reagent Solution • 8. 30-second plate shake • 9. 60-minute Development Reaction incubation at room temperature • 10. Read on fluorescence plate reader and analyze the data

[3] = system: TLR dependent cytokine release in human blood; test: Human whole blood assays, average of IL-6 Gard and TNFα LPS; format: cell-based; conditions: read-out: Human Whole Blood Assays (IC5050), Average
Method: To assess the effect of whole blood on the potency of compound I-1 and Comparison-1, the compounds were evaluated for their inhibitory potential on TLR dependent cytokine release in human blood. Freshly drawn peripheral blood from healthy volunteers was incubated with test compound and stimulated overnight with LPS or Gardiquimod. The serum was isolated after centrifugation and TNF-α and IL-6 were measured by ELISA.

[4] = Plasma protein binding, equilibrium dialysis (RED), mouse; format: in vitro ADME; conditions: drug 5 μM; for recovery at 5 μM: low due to hydrolysis; for fraction unbound at 5 μM: read-out: % bound (converted)
Method: as §1, §2

[5] = Plasma protein binding, equilibrium dialysis (RED), dog; format: in vitro ADME; conditions: drug 5 μM; for fraction unbound at 5 μM: read-out: % bound (converted)
Method: as §1, §2

[6] = Plasma protein binding, equilibrium dialysis (RED), human; format: in vitro ADME; conditions: for recovery at 5 μM / fraction unbound at 5 μM: Human plasma, drug 5 μM; for fraction unbound at 5 μM: read-out: % bound (converted); for Free Fraction in Whole Blood Assay, Human: plasma free fraction
Method: as §1, §2

[7] = Plasma protein binding, equilibrium dialysis (RED), monkey; format: in vitro ADME; conditions: drug 5 μM; for fraction unbound at 5 μM: read-out: % bound (converted); for recovery at 5 μM: value above 100% due to experimental error (footnote)
Method: as §1, §2

[8] = system: TLR7-induced TNF-α production in human primary dendritic cells (DC); test: Gardiquimod-induced TNF-α in human monocyte-derived dendritic cells (DC); format: cell-based; conditions: Dendritic cell, gardiquimod 4 μg/ml, read-out: Cell Assays IC50, TNFα (DC, Gard)
Method: Human peripheral blood mononuclear cells (PBMC) (400 million) were allowed to adhere in a T-175 flask containing 15 ml RPMI media (10% FBS) for 2 hours at 37° C., 5% CO2 to capture the monocytes.
After 2 hours, the media including floating cells was carefully removed and 12 ml of fresh RPMI media (10% FBS) containing GM-CSF (100 ng/ml) and IL-4 (20 ng/ml) were added to the adherent monocytes. The monocytes were allowed to differentiate for 7 days at 37° C., 5% CO2 for 7 days, supplementing with fresh GM-CSF and IL-4 after 3 days.
The differentiated dendritic cells (DC) were harvested by centrifugation (1200 rpm/5 min). The DCs were primed at 37° C., 5% CO2 for 24 hours with 50 ng/ml IFN-7 (1000 U/ml) at 50K/well in 100 μL/well of fresh RPMI media (10% FBS) in a white clear bottom 96 well plate.
Compound was serially diluted in DMSO from 2.5 mM in 4-fold dilutions, and then diluted 1:125 in RPMI 1640 complete media with 10% FBS. The primed DCs were pre-incubated with test compound for 1 hour at 37° C., 5% CO2 by adding 100 μl of RPMI media containing 2× concentrated test compound per well (0.5% final DMSO concentration).
The DCs were stimulated with gardiquimod (10 μL per well of 20× concentrated gardiquimod solution in RPMI media to give a final concentration of 4 μg/ml) at 37° C., 5% CO2 for an additional 18 hours. […] TNF-α was quantitated by ELISA, following the kit protocol.

CCO[C@H]1CC[C@H](n2cc(NC(=O)c3csc(-c4cn[nH]c4)n3)c(-c3nc(F)ccc3F)n2)CC1 [Comparison-1, reference compound]
recovery at 5 μM [1]: 68.3% | fraction unbound at 5 μM [1]: 0.007 | Free Fraction in Whole Blood Assay, Rat [1]: 0.7% | IC50 [2]: 15 nM | IC50 [3]: 1400 nM | recovery at 5 μM [4]: 10% | fraction unbound at 5 μM [4]: 0.022 | recovery at 5 μM [5]: 77.2% | fraction unbound at 5 μM [5]: 0.01 | recovery at 5 μM [6]: 75.5% | fraction unbound at 5 μM [6]: 0.004 | Free Fraction in Whole Blood Assay, Human [6]: 0.4% | fraction unbound at 5 μM [7]: 0.003 | recovery at 5 μM [7]: 71.6% | IC50 [8]: 19 nM

CCO[C@H]1CC[C@H](n2cc(NC(=O)c3csc(-c4cn[nH]c4)n3)c(-c3ncccn3)n2)CC1 [Compound I-1, N-(1-((1r,4r)-4-ethoxycyclohexyl)-3-(pyrimidin-2-yl)-1H-pyrazol-4-yl)-2-(1H-pyrazol-4-yl)thiazole-4-carboxamide]
recovery at 5 μM [1]: 73.9% | fraction unbound at 5 μM [1]: 0.037 | Free Fraction in Whole Blood Assay, Rat [1]: 3.7% | EC50 [2]: 6 nM | IC50 [2]: 6 nM | IC50 [3]: 174 nM | recovery at 5 μM [4]: 23.6% | fraction unbound at 5 μM [4]: 0.085 | recovery at 5 μM [5]: 70.7% | fraction unbound at 5 μM [5]: 0.066 | recovery at 5 μM [6]: 77.1% | fraction unbound at 5 μM [6]: 0.03 | Free Fraction in Whole Blood Assay, Human [6]: 3.0% | times more free than Comparison-1 (free drug) ([6]; in rat, dog, monkey and human proteins): approximately 6 times | fraction unbound at 5 μM [7]: 0.017 | recovery at 5 μM [7]: 104% | IC50 [8]: 5 nM
